pIC50, pKd: −log10 of the molar value. Calls of active or inactive are those of the source. The rule behind the calls is not given here.
These compounds were tested against T1, Bromodomain testis-specific protein (Homo sapiens, UniProt Q58F21) (assay: Binding affinity to recombinant human N-terminal hexaHis-tagged BRDT expressed in Escherichia coli BL21 (DE3) cells by ITC analysis). Conditions: not given.

How did the pKd turn out when `CCOc1cc(C(=O)N2CCC(N3CCN(C)CC3)CC2)ccc1Nc1ncc2c(n1)N(C1CCCC1)c1ccccc1C(=O)N2C` was run?
The pKd was 5.68.

With `CC[C@@H]1C(=O)N(C)c2cnc(Nc3ccc(C(=O)N[C@H]4CC[C@H](N5CCN(CC6CC6)CC5)CC4)cc3OC)nc2N1C(C)C` [VOLASERTIB] as the compound, how does the pKd read?
The pKd was 5.77.

`Cc1cnc(Nc2ccc(C(=O)NC3CCN(C)CC3)c(F)c2)nc1Nc1ccc(Cl)c(NS(=O)(=O)C(C)(C)C)c1` was tested. Which pKd did it give?
Its pKd is 7.23.

`CCOc1cc(N2CCC(O)CC2)ccc1Nc1ncc2c(n1)N(C)c1ccccc1C(=O)N2C` was tested. Which pKd did it give?
The pKd was 5.38.

These compounds were tested against T1, Bromodomain testis-specific protein (assay: Binding affinity to recombinant human N-terminal hexaHis-tagged BRDT expressed in Escherichia coli BL21 (DE3) cells by qPCR assay). Conditions: not given.

How did the pKd turn out when `CCOc1cc(C(=O)N2CCC(N3CCN(C)CC3)CC2)ccc1Nc1ncc2c(n1)N(C1CCCC1)c1ccccc1C(=O)N2C` was run?
The pKd was 6.30.

With `CC[C@@H]1C(=O)N(C)c2cnc(Nc3ccc(C(=O)N[C@H]4CC[C@H](N5CCN(CC6CC6)CC5)CC4)cc3OC)nc2N1C(C)C` [VOLASERTIB] as the compound, how does the pKd read?
The pKd was 6.95.

`CCOc1cc(N2CCC(O)CC2)ccc1Nc1ncc2c(n1)N(C)c1ccccc1C(=O)N2C` was tested. Which pKd did it give?
Its pKd is 6.17.

Each compound was assayed against T2, Bromodomain-containing protein 4 (Homo sapiens, UniProt O60885) (assay: Binding affinity to recombinant human N-terminal hexaHis-tagged BRD4 expressed in Escherichia coli BL21 (DE3) cells by ITC analysis). Conditions: not given.

How did the pKd turn out when `CCOc1cc(C(=O)N2CCC(N3CCN(C)CC3)CC2)ccc1Nc1ncc2c(n1)N(C1CCCC1)c1ccccc1C(=O)N2C` was run?
Its pKd is 6.67.

`CC[C@@H]1C(=O)N(C)c2cnc(Nc3ccc(C(=O)N[C@H]4CC[C@H](N5CCN(CC6CC6)CC5)CC4)cc3OC)nc2N1C(C)C` [VOLASERTIB] was tested. Which pKd did it give?
Its pKd is 6.50.

How did the pKd turn out when `Cc1cnc(Nc2ccc(C(=O)NC3CCN(C)CC3)c(F)c2)nc1Nc1ccc(Cl)c(NS(=O)(=O)C(C)(C)C)c1` was run?
Its pKd is 7.27.

With `CCOc1cc(N2CCC(O)CC2)ccc1Nc1ncc2c(n1)N(C)c1ccccc1C(=O)N2C` as the compound, how does the pKd read?
Its pKd is 6.13.

Each compound was assayed on MM1.S (assay: Inhibition of cell growth in human MM1.S cells incubated for 72 hrs by CellTiter-blue reagent based assay). Conditions: not given.
Type: functional

With `CCOc1cc(C(=O)N2CCC(N3CCN(C)CC3)CC2)ccc1Nc1ncc2c(n1)N(C1CCCC1)c1ccccc1C(=O)N2C` as the compound, how does the pIC50 read?
The pIC50 was 6.55.

With `CC[C@@H]1C(=O)N(C)c2cnc(Nc3ccc(C(=O)N[C@H]4CC[C@H](N5CCN(CC6CC6)CC5)CC4)cc3OC)nc2N1C(C)C` [VOLASERTIB] as the compound, how does the pIC50 read?
The pIC50 was 8.35.

With `Cc1cnc(Nc2ccc(C(=O)NC3CCN(C)CC3)c(F)c2)nc1Nc1ccc(Cl)c(NS(=O)(=O)C(C)(C)C)c1` as the compound, how does the pIC50 read?
Its pIC50 is 7.59.

`COc1cc(C(=O)N2CCC(N3CCN(C)CC3)CC2)ccc1Nc1ncc2c(n1)N(C)c1ccccc1C(=O)N2C` was tested. Which pIC50 did it give?
The pIC50 was 6.28.

With `Cc1sc2c(c1C)C(c1ccc(Cl)cc1)=N[C@@H](CC(=O)OC(C)(C)C)c1nnc(C)n1-2` as the compound, how does the pIC50 read?
Its pIC50 is 7.48.

Each compound was assayed against T2, Bromodomain-containing protein 4. Conditions: not given.

How did the ΔTm turn out when `CCOc1cc(C(=O)N2CCC(N3CCN(C)CC3)CC2)ccc1Nc1ncc2c(n1)N(C1CCCC1)c1ccccc1C(=O)N2C` was run?
The ΔTm was 7.3 °C.

`Cc1cnc(Nc2ccc(C(=O)NC3CCN(C)CC3)c(F)c2)nc1Nc1ccc(Cl)c(NS(=O)(=O)C(C)(C)C)c1` was tested. Which ΔTm did it give?
Its ΔTm is 13.5 °C.

Each compound was assayed against Serine/threonine-protein kinase PLK1 (Homo sapiens) (UniProt P53350). Conditions: MM1.S, dose 30-100 nM, time 6.0 hrs.
Chain of Serine/threonine-protein kinase PLK1 (Homo sapiens) (P53350 whole entry): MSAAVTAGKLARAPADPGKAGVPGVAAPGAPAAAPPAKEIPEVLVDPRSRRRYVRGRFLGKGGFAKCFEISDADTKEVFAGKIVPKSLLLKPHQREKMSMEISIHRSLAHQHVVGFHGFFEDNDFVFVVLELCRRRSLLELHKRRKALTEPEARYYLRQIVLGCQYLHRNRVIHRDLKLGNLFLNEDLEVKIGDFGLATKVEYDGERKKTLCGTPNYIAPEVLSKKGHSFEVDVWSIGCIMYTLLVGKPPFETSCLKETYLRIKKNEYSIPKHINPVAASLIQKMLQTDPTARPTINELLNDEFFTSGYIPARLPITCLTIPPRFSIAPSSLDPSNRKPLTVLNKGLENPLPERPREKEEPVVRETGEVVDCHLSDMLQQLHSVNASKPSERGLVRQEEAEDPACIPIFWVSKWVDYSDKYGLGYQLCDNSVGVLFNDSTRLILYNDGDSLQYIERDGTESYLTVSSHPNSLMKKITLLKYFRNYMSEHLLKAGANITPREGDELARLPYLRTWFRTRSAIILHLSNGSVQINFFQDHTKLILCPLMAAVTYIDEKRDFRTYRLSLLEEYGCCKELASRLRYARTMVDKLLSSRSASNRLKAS

Which inhibition does the source give for `CC[C@@H]1C(=O)N(C)c2cnc(Nc3ccc(C(=O)N[C@H]4CC[C@H](N5CCN(CC6CC6)CC5)CC4)cc3OC)nc2N1C(C)C` [VOLASERTIB] here?
The inhibition was “Active”.

For `C[C@@H](Oc1cc(-n2cnc3ccc(CN4CCN(C)CC4)cc32)sc1C(N)=O)c1ccccc1C(F)(F)F`, which inhibition is on record?
Its inhibition is “Active”.

Which inhibition does the source give for `COc1cc(C(=O)N2CCC(N3CCN(C)CC3)CC2)ccc1Nc1ncc2c(n1)N(C)c1ccccc1C(=O)N2C` here?
The inhibition was “inactive”.

Which inhibition does the source give for `Cc1sc2c(c1C)C(c1ccc(Cl)cc1)=N[C@@H](CC(=O)OC(C)(C)C)c1nnc(C)n1-2` here?
The inhibition was “inactive”.

Each compound was assayed on HEK-293T (assay: Inhibition of cell growth in HEK293T cells incubated for 72 hrs by CellTiter-blue reagent based assay). Conditions: Homo sapiens.
Type: functional

With `CCOc1cc(C(=O)N2CCC(N3CCN(C)CC3)CC2)ccc1Nc1ncc2c(n1)N(C1CCCC1)c1ccccc1C(=O)N2C` as the compound, how does the pIC50 read?
Its pIC50 is less than 5.00.

With `CC[C@@H]1C(=O)N(C)c2cnc(Nc3ccc(C(=O)N[C@H]4CC[C@H](N5CCN(CC6CC6)CC5)CC4)cc3OC)nc2N1C(C)C` [VOLASERTIB] as the compound, how does the pIC50 read?
The pIC50 was 8.96.

How did the pIC50 turn out when `Cc1cnc(Nc2ccc(C(=O)NC3CCN(C)CC3)c(F)c2)nc1Nc1ccc(Cl)c(NS(=O)(=O)C(C)(C)C)c1` was run?
The pIC50 was 6.85.

With `CCOc1cc(N2CCC(O)CC2)ccc1Nc1ncc2c(n1)N(C)c1ccccc1C(=O)N2C` as the compound, how does the pIC50 read?
Its pIC50 is less than 5.00.

How did the pIC50 turn out when `COc1cc(C(=O)N2CCC(N3CCN(C)CC3)CC2)ccc1Nc1ncc2c(n1)N(C)c1ccccc1C(=O)N2C` was run?
Its pIC50 is 5.55.

The compounds below were run against T2, Bromodomain-containing protein 4 (assay: Binding affinity to recombinant human N-terminal hexaHis-tagged BRD4 expressed in Escherichia coli BL21 (DE3) cells by MST assay). Conditions: not given.

How did the pKd turn out when `CCOc1cc(C(=O)N2CCC(N3CCN(C)CC3)CC2)ccc1Nc1ncc2c(n1)N(C1CCCC1)c1ccccc1C(=O)N2C` was run?
Its pKd is 6.69.

`CC[C@@H]1C(=O)N(C)c2cnc(Nc3ccc(C(=O)N[C@H]4CC[C@H](N5CCN(CC6CC6)CC5)CC4)cc3OC)nc2N1C(C)C` [VOLASERTIB] was tested. Which pKd did it give?
Its pKd is 6.77.

With `CCOc1cc(N2CCC(O)CC2)ccc1Nc1ncc2c(n1)N(C)c1ccccc1C(=O)N2C` as the compound, how does the pKd read?
Its pKd is 6.10.

What follows are compounds tested against T1, Bromodomain testis-specific protein (assay: Binding affinity to recombinant human N-terminal hexaHis-tagged BRDT expressed in Escherichia coli BL21 (DE3) cells by MST assay). Conditions: not given.

How did the pKd turn out when `CCOc1cc(C(=O)N2CCC(N3CCN(C)CC3)CC2)ccc1Nc1ncc2c(n1)N(C1CCCC1)c1ccccc1C(=O)N2C` was run?
The pKd was 5.80.

With `CC[C@@H]1C(=O)N(C)c2cnc(Nc3ccc(C(=O)N[C@H]4CC[C@H](N5CCN(CC6CC6)CC5)CC4)cc3OC)nc2N1C(C)C` [VOLASERTIB] as the compound, how does the pKd read?
The pKd was 5.99.

How did the pKd turn out when `CCOc1cc(N2CCC(O)CC2)ccc1Nc1ncc2c(n1)N(C)c1ccccc1C(=O)N2C` was run?
The pKd was 5.46.

The compounds below were run against T1, Bromodomain testis-specific protein. Conditions: not given.

For `CCOc1cc(C(=O)N2CCC(N3CCN(C)CC3)CC2)ccc1Nc1ncc2c(n1)N(C1CCCC1)c1ccccc1C(=O)N2C`, which ΔTm is on record?
The ΔTm was 2.3 °C.

How did the ΔTm turn out when `CC[C@@H]1C(=O)N(C)c2cnc(Nc3ccc(C(=O)N[C@H]4CC[C@H](N5CCN(CC6CC6)CC5)CC4)cc3OC)nc2N1C(C)C` [VOLASERTIB] was run?
The ΔTm was 5 °C.

`Cc1cnc(Nc2ccc(C(=O)NC3CCN(C)CC3)c(F)c2)nc1Nc1ccc(Cl)c(NS(=O)(=O)C(C)(C)C)c1` was tested. Which ΔTm did it give?
Its ΔTm is 11.9 °C.

Which ΔTm does the source give for `CCOc1cc(N2CCC(O)CC2)ccc1Nc1ncc2c(n1)N(C)c1ccccc1C(=O)N2C` here?
Its ΔTm is 2.9 °C.

How did the ΔTm turn out when `COc1cc(C(=O)N2CCC(N3CCN(C)CC3)CC2)ccc1Nc1ncc2c(n1)N(C)c1ccccc1C(=O)N2C` was run?
The ΔTm was 3.8 °C.

What follows are compounds tested against T2, Bromodomain-containing protein 4 (assay: Binding affinity to recombinant human N-terminal hexaHis-tagged BRD4 expressed in Escherichia coli BL21 (DE3) cells by qPCR assay). Conditions: not given.

`CCOc1cc(C(=O)N2CCC(N3CCN(C)CC3)CC2)ccc1Nc1ncc2c(n1)N(C1CCCC1)c1ccccc1C(=O)N2C` was tested. Which pKd did it give?
The pKd was 7.16.

`CC[C@@H]1C(=O)N(C)c2cnc(Nc3ccc(C(=O)N[C@H]4CC[C@H](N5CCN(CC6CC6)CC5)CC4)cc3OC)nc2N1C(C)C` [VOLASERTIB] was tested. Which pKd did it give?
Its pKd is 7.11.

With `Cc1cnc(Nc2ccc(C(=O)NC3CCN(C)CC3)c(F)c2)nc1Nc1ccc(Cl)c(NS(=O)(=O)C(C)(C)C)c1` as the compound, how does the pKd read?
Its pKd is 7.92.

With `CCOc1cc(N2CCC(O)CC2)ccc1Nc1ncc2c(n1)N(C)c1ccccc1C(=O)N2C` as the compound, how does the pKd read?
Its pKd is 6.69.
